{"source": "PubChem BioAssay AID270", "about": "(DTP/NCI, 2004)", "tested_on": "BDF1 mice, s.c. Lewis lung carcinoma, T/C %", "assay": "NCI In Vivo Anticancer Drug Screen. Data for tumor model Lewis Lung Carcinoma (subcutaneous) in B6D2F1 (BDF1) mice", "method_in_brief": "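Tumor-bearing mice were treated with test compound, and either survival or tumor size was recorded. Values are the treated-group measurement divided by that of the vehicle-treated control group.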", "key": {"[1]": {"details": "endpoint: mean tumor weight, dose: 25.0 mg/kg/injection, schedule: Q01DX011 (ip), vehicle: carboxymethylcellulose (CMC), higher = larger tumour"}, "[2]": {"details": "endpoint: mean tumor weight, dose: 50.0 mg/kg/injection, schedule: Q01DX011 (ip), vehicle: carboxymethylcellulose (CMC), higher = larger tumour"}}, "note": "Where “and” joins values, the source holds several entries; their conditions need not be identical. Equal values may be shown once. Results filed as inconclusive are left out."}
{"smiles": "CCCCCCCCSC1=C(Cl)C(=O)C(OC)=C(OC)C1=O", "values": [{"measurement": "T/C", "setting": "endpoint: median survival time, dose: 12.5 mg/kg/injection, schedule: Q01DX009 (ip), vehicle: other, higher = longer survival", "value": "92 % of control"}]}
{"smiles": "Cc1ccc(C(=O)/C=C/c2ccccc2O)cc1", "values": [{"measurement": "T/C", "setting": "endpoint: median survival time, dose: 37.5 mg/kg/injection, schedule: Q01DX009 (ip), vehicle: Klucel (hydroxypropylcellulose) (HPC), higher = longer survival", "value": "105 % of control"}, {"measurement": "T/C", "setting": "endpoint: median survival time, dose: 75.0 mg/kg/injection, schedule: Q01DX009 (ip), vehicle: Klucel (hydroxypropylcellulose) (HPC), higher = longer survival", "value": "111 % of control"}, {"measurement": "T/C", "setting": "endpoint: median survival time, dose: 150.0 mg/kg/injection, schedule: Q01DX009 (ip), vehicle: Klucel (hydroxypropylcellulose) (HPC), higher = longer survival", "value": "108 % of control"}, {"measurement": "T/C", "setting": "endpoint: median survival time, dose: 300.0 mg/kg/injection, schedule: Q01DX009 (ip), vehicle: Klucel (hydroxypropylcellulose) (HPC), higher = longer survival", "value": "89 % of control"}]}
{"smiles": "COc1cccc(C=O)c1O", "values": [{"measurement": "T/C", "setting": "endpoint: mean tumor weight, dose: 12.5 mg/kg/injection, schedule: Q01DX011 (ip), vehicle: carboxymethylcellulose (CMC), higher = larger tumour", "value": "106 % of control"}, {"measurement": "T/C", "setting": "[1]", "value": "58 % of control"}, {"measurement": "T/C", "setting": "[2]", "value": "88 % of control"}]}
{"smiles": "O=C1c2c(Cl)c(Cl)c(Cl)c(Cl)c2C(=O)N1c1nccs1", "values": [{"measurement": "T/C", "setting": "[1]", "value": "62 % of control"}, {"measurement": "T/C", "setting": "[2]", "value": "50 % of control"}]}
{"smiles": "COc1ccc2c(=O)cc(-c3ccccc3)n(C)c2c1", "values": [{"measurement": "T/C", "setting": "endpoint: mean tumor weight, dose: 50.0 mg/kg/injection, schedule: Q01DX011 (ip), vehicle: saline, higher = larger tumour", "value": "109 % of control"}, {"measurement": "T/C", "setting": "endpoint: mean tumor weight, dose: 100.0 mg/kg/injection, schedule: Q01DX011 (ip), vehicle: saline, higher = larger tumour", "value": "83 % of control"}, {"measurement": "T/C", "setting": "endpoint: mean tumor weight, dose: 200.0 mg/kg/injection, schedule: Q01DX011 (ip), vehicle: saline, higher = larger tumour", "value": "79 % of control"}]}
{"smiles": "O=C(O)CCc1c[nH]c2ccc(N(CCCl)CCCl)cc12", "values": [{"measurement": "T/C", "setting": "endpoint: mean tumor weight, dose: 0.7 mg/kg/injection, schedule: Q01DX011 (ip), vehicle: carboxymethylcellulose (CMC), higher = larger tumour", "value": "74 % of control"}, {"measurement": "T/C", "setting": "endpoint: mean tumor weight, dose: 1.5 mg/kg/injection, schedule: Q01DX011 (ip), vehicle: carboxymethylcellulose (CMC), higher = larger tumour", "value": "79 % of control"}, {"measurement": "T/C", "setting": "endpoint: mean tumor weight, dose: 3.0 mg/kg/injection, schedule: Q01DX011 (ip), vehicle: carboxymethylcellulose (CMC), higher = larger tumour", "value": "51 % of control"}]}
{"smiles": "COc1ccc(C[C@H](N)C(=O)NC2C(CO)OC(n3cnc4c(N(C)C)ncnc43)C2O)cc1", "note": "(stereo not given in full)", "values": [{"measurement": "T/C", "setting": "endpoint: median survival time, dose: 2.0 mg/kg/injection, schedule: Q01DX009 (ip), vehicle: saline, higher = longer survival", "value": "97 % of control"}, {"measurement": "T/C", "setting": "endpoint: median survival time, dose: 4.0 mg/kg/injection, schedule: Q01DX009 (ip), vehicle: saline, higher = longer survival", "value": "96 % of control and 101 % of control"}, {"measurement": "T/C", "setting": "endpoint: median survival time, dose: 8.0 mg/kg/injection, schedule: Q01DX009 (ip), vehicle: saline, higher = longer survival", "value": "102 % of control"}, {"measurement": "T/C", "setting": "endpoint: median survival time, dose: 16.0 mg/kg/injection, schedule: Q01DX009 (ip), vehicle: saline, higher = longer survival", "value": "99 % of control"}, {"measurement": "T/C", "setting": "endpoint: median survival time, dose: 32.0 mg/kg/injection, schedule: Q01DX009 (ip), vehicle: saline, higher = longer survival", "value": "90 % of control and 110 % of control"}, {"measurement": "T/C", "setting": "endpoint: median survival time, dose: 64.0 mg/kg/injection, schedule: Q01DX009 (ip), vehicle: saline, higher = longer survival", "value": "97 % of control and 102 % of control"}, {"measurement": "T/C", "setting": "endpoint: median survival time, dose: 128.0 mg/kg/injection, schedule: Q01DX009 (ip), vehicle: saline, higher = longer survival", "value": "102 % of control"}]}
{"smiles": "COc1cccc2c1C(=O)c1c(O)c3c(c(O)c1C2=O)C[C@@](O)(C(=O)CO)C[C@@H]3OC1CC(N)C(O)C(C)O1", "note": "(stereo not given in full)", "values": [{"measurement": "T/C", "setting": "endpoint: median survival time, dose: 0.03 mg/kg/injection, schedule: Q01DX009 (ip), vehicle: saline, higher = longer survival", "value": "88 % of control"}, {"measurement": "T/C", "setting": "endpoint: median survival time, dose: 0.06 mg/kg/injection, schedule: Q01DX009 (ip), vehicle: saline, higher = longer survival", "value": "88 % of control"}, {"measurement": "T/C", "setting": "endpoint: median survival time, dose: 0.12 mg/kg/injection, schedule: Q01DX009 (ip), vehicle: saline, higher = longer survival", "value": "100 % of control"}, {"measurement": "T/C", "setting": "endpoint: median survival time, dose: 0.25 mg/kg/injection, schedule: Q01DX009 (ip), vehicle: saline, higher = longer survival", "value": "105 % of control"}, {"measurement": "T/C", "setting": "endpoint: median survival time, dose: 0.25 mg/kg/injection, schedule: Q08HX024 (ip), vehicle: saline, higher = longer survival", "value": "113 % of control"}, {"measurement": "T/C", "setting": "endpoint: median survival time, dose: 0.5 mg/kg/injection, schedule: Q08HX024 (ip), vehicle: saline, higher = longer survival", "value": "182 % of control"}, {"measurement": "T/C", "setting": "endpoint: median survival time, dose: 1.0 mg/kg/injection, schedule: Q08HX024 (ip), vehicle: saline, higher = longer survival", "value": "89 % of control"}, {"measurement": "T/C", "setting": "endpoint: median survival time, dose: 1.92 mg/kg/injection, schedule: Q04DX003 (ip), vehicle: saline, higher = longer survival", "value": "104 % of control and 106 % of control"}, {"measurement": "T/C", "setting": "endpoint: median survival time, dose: 1.92 mg/kg/injection, schedule: Q04DX003 (iv), vehicle: saline, higher = longer survival", "value": "93 % of control and 108 % of control"}, {"measurement": "T/C", "setting": "endpoint: median survival time, dose: 2.74 mg/kg/injection, schedule: Q04DX003 (ip), vehicle: saline, higher = longer survival", "value": "99 % of control and 103 % of control"}, {"measurement": "T/C", "setting": "endpoint: median survival time, dose: 2.74 mg/kg/injection, schedule: Q04DX003 (iv), vehicle: saline, higher = longer survival", "value": "99 % of control and 111 % of control"}, {"measurement": "T/C", "setting": "endpoint: median survival time, dose: 3.36 mg/kg/injection, schedule: Q01DX001 (ip), vehicle: saline, higher = longer survival", "value": "101 % of control and 102 % of control"}, {"measurement": "T/C", "setting": "endpoint: median survival time, dose: 3.36 mg/kg/injection, schedule: Q01DX001 (iv), vehicle: saline, higher = longer survival", "value": "101 % of control and 105 % of control"}, {"measurement": "T/C", "setting": "endpoint: median survival time, dose: 3.9 mg/kg/injection, schedule: Q04DX003 (ip), vehicle: saline, higher = longer survival", "value": "105 % of control and 123 % of control"}, {"measurement": "T/C", "setting": "endpoint: median survival time, dose: 3.9 mg/kg/injection, schedule: Q04DX003 (iv), vehicle: saline, higher = longer survival", "value": "108 % of control and 113 % of control"}, {"measurement": "T/C", "setting": "endpoint: median survival time, dose: 4.8 mg/kg/injection, schedule: Q01DX001 (ip), vehicle: saline, higher = longer survival", "value": "98 % of control and 102 % of control"}, {"measurement": "T/C", "setting": "endpoint: median survival time, dose: 4.8 mg/kg/injection, schedule: Q01DX001 (iv), vehicle: saline, higher = longer survival", "value": "90 % of control and 102 % of control"}, {"measurement": "T/C", "setting": "endpoint: median survival time, dose: 5.6 mg/kg/injection, schedule: Q04DX003 (iv), vehicle: saline, higher = longer survival", "value": "105 % of control"}, {"measurement": "T/C", "setting": "endpoint: median survival time, dose: 6.86 mg/kg/injection, schedule: Q01DX001 (ip), vehicle: saline, higher = longer survival", "value": "117 % of control"}, {"measurement": "T/C", "setting": "endpoint: median survival time, dose: 6.86 mg/kg/injection, schedule: Q01DX001 (iv), vehicle: saline, higher = longer survival", "value": "111 % of control and 114 % of control"}, {"measurement": "T/C", "setting": "endpoint: median survival time, dose: 9.8 mg/kg/injection, schedule: Q01DX001 (iv), vehicle: saline, higher = longer survival", "value": "105 % of control"}, {"measurement": "T/C", "setting": "endpoint: median survival time, dose: 14.0 mg/kg/injection, schedule: Q01DX001 (ip), vehicle: saline, higher = longer survival", "value": "99 % of control"}]}
